This passage reports IC50 results from patent publication US20250270209A1 (INTERLINE THERAPEUTICS, INC., priority 2022, published 2025).

Experiment [1] concerns the target T1, wild type LRRK2 overexpressed in recombinant HEK-293T cells (Homo sapiens, UniProt Q5S007).
T1 construct: host or cells: HEK293T (transient transfection with pCMV-LRRK2 WT plasmid)
Put plainly: pS935 LRRK2 Cell Assay (HTRF, phospho-LRRK2 Ser935). Conditions: LRRK2 Inhibition, Table 8, 2 hours compound incubation. The format is cell-based. The method, then: (§1) A 2× detection solution was prepared: Tb-pERM (pLRRKtide) antibody (final concentration 0.25 nM) and EDTA (final concentration 10 mM) in TR-FRET dilution buffer. 10 μL 2× detection solution was dispensed to each well in assay plate to stop kinase reaction by Multidrop. Assay plate was spun at 1,000 rpm for 1 min and incubate for 30 min at 23° C. Assay plate was then read on Envision configured for LanthaScreen® TR-FRET. pS935 LRRK2 Cell Assay
The following protocol describes an in-vitro method for measuring phosphorylation at Ser935 on wild type LRRK2 overexpressed in recombinant HEK-293T cells. The method is based on HTRF technology, which combines Fluorescence Resonance Energy Transfer (FRET) with Time-Resolved measurement (TR). Phospho-LRRK2 (Ser935) is detected in a sandwich assay format using two different specific antibodies, one labelled with Eu3+-Cryptate (donor) and the second with d2(acceptor).When the fluorophores are in close proximity, excitation of the donor with a light source (flash lamp) stimulates FRET to the acceptor, which in turn fluoresces at a specific wavelength (665 nm). The fluorescence emission at 615 nm from the donor is also measured to allow ratiometric reduction of data. The specific signal is proportional to phospho-LRRK2 (Ser935).
Plasmid transient transfection: DMEM medium, FBS, DPBS, Trans-IT, OPTI-MEM reagents were allowed to warm to room temperature. HEK293T cells were cultured in DMEM +10% FBS complete medium in T150 flasks till around 80% confluency before transfection. Then cells were washed with 10 mL PBS and detached with 3 mL 0.25% typinsin. 30×10E6 HEK293T cells were seeded in DMEM +10% FBS complete medium to a 15 cm dish.
DNA, TransIT-LT1, OPTI-MEM complex were prepared: […] OPTI-MEM was added to a 15 mL cone tube, then […] plasmid was added to OPTI-MEM and mixed, followed by addition of 60 μL TransIT-LT1 to the plasmid OPTI-MEM mixture and mixing. The resulting mixture was incubated for 15 minutes.
The above plasmid, DNA and OPTI-MEM mixture was added dropwise to the 15 cm dish, ensuring the drops were evenly distributed. The culture dish was gently rocked back and forth and from left to right to evenly distribute the complex. The tranfected dish was incubated for 24 hours at 37° C., and 5% CO2.
Transfected HEK293T was collected in the 15 cm dish. Media was aspirated from tissue culture dish, and washed by dispensing 10 mL 1× DPBS into 15 cm dish. 1× DPBS was aspirated and 3 mL trypsin was dispensed to 15 cm dish. The dish was incubated with trypsin at room temperature for 3 min until the cells were detached. 10 mL of DMEM +10% FBS medium were added to 15 cm dish and triturated to ensure homogenous cell suspensions.
Homogenous cell suspensions were transferred to a 50 mL tube, and centrifuged for 5 minutes at 1,000 rmp/min. The supernatant was aspirated and resuspended with 20 mL complete medium. 1 mL of cell suspension was transferred for cell counting. The cell suspension was diluted to 2× 10E5 cells/ml. 50 μL cell suspensions were added to a 384-well plate. The plate was quick spun at 800 rpm for 1 minute, then incubate overnight at 37° C., 5% CO2.
Compound dispensing: compound was diluted (10 mM DMSO stock solution) and added to assay plate (top concentration: 10 μM, 3 fold serial dilution, 9 doses) with duplicates by Tecan liquid handler. The DMSO concentration of each well was normalized to 0.2%. Plates were quick spun at 1,000 rpm for 1 minute. Plates were incubated at 37° C., 5% CO2 for 2 hours.
1× lysis buffer solution supplemented with blocking reagent was prepared (e.g. 1 mL lysis buffer 4X+3 mL water+40 μL stock blocking reagent 100X). Antibodies working solution was prepared by diluting 40-fold d2 and Cryptate antibodies with detection buffer(e.g. 1520 μL detection buffer+40 μL d2-antibody stock solution+[…] Cryptate-antibody stock solution).
After 2 hours incubation, cell plates were taken out from the incubator. […]
In general terms: Time-resolved FRET reads energy transfer from a long-lived donor to a nearby acceptor.

The next experiment concerns the target LRRK2 wild type enzyme (Homo sapiens, UniProt Q5S007). Put plainly: Biochemical Assay: LRRK2 TR-FRET (LanthaScreen) kinase assay with LRRKtide substrate. As to conditions: LRRK2 Inhibition, Table 8. The method, then: 10 mM compound solution was prepared in DMSO. An 11-point, 3-fold dilution was performed, with highest concentration at 10 μM. A 10 mM compound DMSO solution was added to Labcyte LDV plate and the compound concentration of source plate was 10 mM. The 1st compound concentration of Inter plate(Labcyte 384 well PP plate) was 4.938×10^−1 mM which was prepared by transferring 1.5 μL of 10 mM compound from source plate to 28.9 μL DMSO. The 2nd compound concentration of Inter plate was 1.829×10^−2 mM which was prepared by transferring 60 nL of 10 mM compound from source plate to 32.7 μL DMSO. The 3rd compound concentration of Inter plate was 6.774×10^−4 mM which was prepared by transferring 2.5 nL of 10 mM compound from source plate to 36.9 μL DMSO. 100 nL of reference compound was dispensed in column 1 for low control wells and 100 nL of DMSO in column 24 for high control wells. Compounds were dispensed to column 2 to 23 of assay plate and backfilled with DMSO to a total volume of 100 nL.
A 2X LRRK2 enzyme solution (final concentration 3 nM) was prepared in assay buffer (Tris-HCl pH8.0:50 mM, MgCl2: 5 mM, EDTA: 1 mM, Brij-35:0.01%, 2 mM DTT). A 2× substrate solution was prepared: LRRK2 tide substrate (final concentration 400 nM) and ATP (final concentration 25 μM) in assay buffer. 5 μL 2× LRRK2 enzyme solution was dispensed to each well in assay plate by Multidrop. Assay plate was spun at 1,000 rpm for 1 min and incubated for 15 min at 23° C. 5 μL 2× ATP/LRRKtide solution was dispensed to each well in assay plate by Multidrop. Assay plate was spun at 1,000 rpm for 1 min and incubated for 120 min at 23° C.
as §1

SMILES strings stand for the structures. Where only a bound is given, the exact number is not on record here.

Chain of LRRK2 wild type enzyme (Q5S007 whole entry): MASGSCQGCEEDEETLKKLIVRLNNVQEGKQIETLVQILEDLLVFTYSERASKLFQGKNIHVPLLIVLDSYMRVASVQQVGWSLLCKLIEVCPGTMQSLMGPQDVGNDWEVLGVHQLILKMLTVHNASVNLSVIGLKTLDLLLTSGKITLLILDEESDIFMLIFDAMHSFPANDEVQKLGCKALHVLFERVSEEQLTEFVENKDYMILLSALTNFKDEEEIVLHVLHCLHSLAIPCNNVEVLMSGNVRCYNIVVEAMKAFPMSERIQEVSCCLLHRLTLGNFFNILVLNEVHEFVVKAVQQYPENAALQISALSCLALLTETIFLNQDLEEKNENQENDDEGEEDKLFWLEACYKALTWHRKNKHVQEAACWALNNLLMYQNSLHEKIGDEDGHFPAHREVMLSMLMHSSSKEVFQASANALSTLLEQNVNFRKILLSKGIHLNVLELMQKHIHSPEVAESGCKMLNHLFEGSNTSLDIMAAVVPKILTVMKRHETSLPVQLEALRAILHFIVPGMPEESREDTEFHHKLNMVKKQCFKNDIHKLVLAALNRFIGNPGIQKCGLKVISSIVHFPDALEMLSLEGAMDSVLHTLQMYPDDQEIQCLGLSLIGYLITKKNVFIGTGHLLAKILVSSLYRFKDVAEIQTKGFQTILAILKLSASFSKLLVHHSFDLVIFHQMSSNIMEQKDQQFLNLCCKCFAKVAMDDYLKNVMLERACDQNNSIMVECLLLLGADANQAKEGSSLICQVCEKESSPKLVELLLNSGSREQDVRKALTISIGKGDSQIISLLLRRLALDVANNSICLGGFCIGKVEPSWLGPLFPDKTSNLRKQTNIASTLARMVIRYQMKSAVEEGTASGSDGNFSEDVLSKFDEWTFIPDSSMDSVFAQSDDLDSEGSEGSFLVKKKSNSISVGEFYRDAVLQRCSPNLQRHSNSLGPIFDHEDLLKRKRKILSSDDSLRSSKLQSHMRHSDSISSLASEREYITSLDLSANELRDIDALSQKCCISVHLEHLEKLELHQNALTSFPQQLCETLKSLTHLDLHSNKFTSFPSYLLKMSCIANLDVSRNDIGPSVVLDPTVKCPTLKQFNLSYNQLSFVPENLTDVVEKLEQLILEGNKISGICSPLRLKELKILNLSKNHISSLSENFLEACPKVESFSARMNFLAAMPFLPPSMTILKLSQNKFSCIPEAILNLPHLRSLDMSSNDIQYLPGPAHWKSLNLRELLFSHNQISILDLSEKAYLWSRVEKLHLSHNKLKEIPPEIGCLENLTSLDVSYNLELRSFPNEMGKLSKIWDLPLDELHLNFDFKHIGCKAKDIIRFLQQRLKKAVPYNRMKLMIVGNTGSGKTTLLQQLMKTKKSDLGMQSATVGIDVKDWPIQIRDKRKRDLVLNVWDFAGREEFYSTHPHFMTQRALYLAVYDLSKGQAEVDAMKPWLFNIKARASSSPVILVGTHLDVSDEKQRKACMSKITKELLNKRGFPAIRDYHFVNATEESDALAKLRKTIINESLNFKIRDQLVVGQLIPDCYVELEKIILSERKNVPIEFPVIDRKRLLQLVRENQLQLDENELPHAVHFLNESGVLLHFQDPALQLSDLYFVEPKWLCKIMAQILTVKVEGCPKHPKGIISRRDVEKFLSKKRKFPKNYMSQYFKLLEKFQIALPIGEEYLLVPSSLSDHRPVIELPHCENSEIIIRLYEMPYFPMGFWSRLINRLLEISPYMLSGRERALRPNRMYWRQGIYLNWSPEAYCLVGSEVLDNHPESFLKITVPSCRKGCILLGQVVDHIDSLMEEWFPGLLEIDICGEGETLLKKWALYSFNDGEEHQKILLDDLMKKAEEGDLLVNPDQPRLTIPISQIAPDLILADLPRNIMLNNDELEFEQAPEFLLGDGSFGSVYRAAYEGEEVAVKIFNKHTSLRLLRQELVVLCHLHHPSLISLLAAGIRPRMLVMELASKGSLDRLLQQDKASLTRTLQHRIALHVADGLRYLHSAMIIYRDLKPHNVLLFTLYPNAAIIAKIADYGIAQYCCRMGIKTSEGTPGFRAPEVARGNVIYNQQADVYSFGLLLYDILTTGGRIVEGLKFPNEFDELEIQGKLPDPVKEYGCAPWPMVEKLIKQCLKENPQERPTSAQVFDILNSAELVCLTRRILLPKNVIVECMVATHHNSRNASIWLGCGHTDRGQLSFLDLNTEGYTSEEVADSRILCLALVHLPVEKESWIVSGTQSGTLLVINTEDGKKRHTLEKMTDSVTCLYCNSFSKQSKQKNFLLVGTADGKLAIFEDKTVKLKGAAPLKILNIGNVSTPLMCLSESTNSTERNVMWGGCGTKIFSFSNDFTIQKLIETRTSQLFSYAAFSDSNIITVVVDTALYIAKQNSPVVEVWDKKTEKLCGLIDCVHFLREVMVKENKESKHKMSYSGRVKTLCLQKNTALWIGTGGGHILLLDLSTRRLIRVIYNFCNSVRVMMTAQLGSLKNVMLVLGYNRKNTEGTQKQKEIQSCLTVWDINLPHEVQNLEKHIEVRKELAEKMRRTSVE
T1 sequence (Q5S007 whole entry): as above

For `C[C@@H]1C[C@H](n2c(CC(=O)Nc3ccno3)nc3cnc4ccc(Cl)cc4c32)CCO1` [Compound 351, N-5-isoxazolyl{3-[(2R,4R)-2-methyltetrahydro-2H-pyran-4-yl]-12-chloro-3,5,8-triazatricyclo[7.4.0.0^2,6]trideca-1(9),2(6),4,7,10,12-hexaen-4-yl}acetamide], the IC50 (commonly the concentration that inhibits the measured activity by half) in experiment [1] came out at 10.4 nM; against LRRK2 wild type enzyme, 0.597 nM.
`C[C@@H]1C[C@H](n2c(CC(=O)Nc3ccn(C4CC4)n3)nc3cnc4ccc(C#N)cc4c32)CCO1` [Compound 354, N-(1-cyclopropyl-3-pyrazolyl){3-[(2R,4R)-2-methyltetrahydro-2H-pyran-4-yl]-12-cyano-3,5,8-triazatricyclo[7.4.0.0^2,6]trideca-1(9),2(6),4,7,10,12-hexaen-4-yl}acetamide]: the half-inhibitory concentration (IC50) was 14.8 nM in experiment [1] and 0.447 nM on LRRK2 wild type enzyme.
As to `C[C@@H]1C[C@H](n2c(C3CC(=O)N([C@H](C)C4CC4)C3)nc3cnc4ccc(C#N)cc4c32)CCO1` (stereo partly drawn) [Compound 34, 2-{1-[(1R)-1-cyclopropylethyl]-5-oxopyrrolidin-3-yl}-1-[(2R,4R)-2-methyloxan-4-yl]-1H-imidazo[4,5-c]quinoline-8-carbonitrile], the IC50 in experiment [1] was 273 nM; against LRRK2 wild type enzyme it was 4.22 nM.
Taken in the same sequence, the figures for `C[C@@H]1C[C@H](n2c(CC(=O)Nc3ccon3)nc3cnc4ccc(C#N)cc4c32)CCO1` [Compound 184, 2-{8-cyano-1-[(2R,4R)-2-methyloxan-4-yl]-1H-imidazo[4,5-c]quinolin-2-yl}-N-(1,2-oxazol-3-yl)acetamide] were 4.73 nM and 0.299 nM.
Taken in the same sequence, the figures for `C[C@@H]1C[C@H](n2c(CC(=O)N[C@@H]3C[C@H]3c3cccnc3)nc3cnc4ccc(C#N)cc4c32)CCO1` [Compound 348, N-[(1R,2S)-2-(3-pyridyl)cyclopropyl]{3-[(2R,4R)-2-methyltetrahydro-2H-pyran-4-yl]-12-cyano-3,5,8-triazatricyclo[7.4.0.0^2,6]trideca-1(9),2(6),4,7,10,12-hexaen-4-yl}acetamide] were 32.3 nM and 0.724 nM.
In the case of `C[C@@H]1C[C@H](n2c(C3CC(=O)N(CC4CC4)C3)nc3cnc4ccc(Cl)cc4c32)CCO1` (stereo partly drawn) [Compound 3, 4-{8-chloro-1-[(2R,4R)-2-methyloxan-4-yl]-1H-imidazo[4,5-c]quinolin-2-yl}-1-(cyclopropylmethyl)pyrrolidin-2-one], the IC50 in experiment [1] stood at 88.7 nM; against LRRK2 wild type enzyme, 1.21 nM.
Taken in the same sequence, the figures for `C[C@@H]1C[C@H](n2c(CC(=O)Nc3ccc(OC(F)F)nc3)nc3cnc4ccc(C#N)cc4c32)CCO1` [Compound 293, N-(6-difluoromethoxy-3-pyridyl){3-[(2R,4R)-2-methyltetrahydro-2H-pyran-4-yl]-12-cyano-3,5,8-triazatricyclo[7.4.0.0^2,6]trideca-1,4,6,8,10,12-hexaen-4-yl}acetamide] were 9.81 nM and 0.514 nM.
Consider `Cn1cc(-n2c(C3CC(=O)N(CC4CC4)C3)nc3cnc4ccc(C#N)cc4c32)ccc1=O` (centres unmarked) [Compound 137, 2-[1-(cyclopropylmethyl)-5-oxopyrrolidin-3-yl]-1-(1-methyl-6-oxo-1,6-dihydropyridin-3-yl)-1H-imidazo[4,5-c]quinoline-8-carbonitrile], for which, on LRRK2 wild type enzyme, the IC50 was greater than 1000 nM.
Same read-out and setting: as for `Cn1cc(-n2c(CC(=O)NCC3CC3)nc3cnc4ccc(C#N)cc4c32)ccc1=O` [Compound 92, 2-[8-cyano-1-(1-methyl-6-oxo-1,6-dihydropyridin-3-yl)-1H-imidazo[4,5-c]quinolin-2-yl]-N-(cyclopropylmethyl)acetamide], the figure is greater than 1000 nM; as for `C[C@@H]1C[C@H](n2c([C@@H]3CCN(S(=O)(=O)c4cnn(C)c4)C3)nc3cnc4ccc(C#N)cc4c32)CCO1` [Compound 128, 2-[(3R)-1-[(1-methyl-1H-pyrazol-4-yl)sulfonyl]pyrrolidin-3-yl]-1-[(2R,4R)-2-methyloxan-4-yl]-1H-imidazo[4,5-c]quinoline-8-carbonitrile], 10 nM.
Still for that read-out and setting: as for `C[C@@H]1C[C@H](n2c(CN3CCC(C(=O)O)CC3)nc3cnc4ccc(C#N)cc4c32)CCO1` [Compound 76, 1-({8-cyano-1-[(2R,4R)-2-methyloxan-4-yl]-1H-imidazo[4,5-c]quinolin-2-yl}methyl)piperidine-4-carboxylic acid], the figure is 109 nM; as for `C[C@@H]1C[C@H](n2c(CC(=O)NCC3CC3)nc3cnc4ccc(C(=O)N(C)C)cc4c32)CCO1` [Compound 144, 2-{[(cyclopropylmethyl)carbamoyl]methyl}-N,N-dimethyl-1-[(2R,4R)-2-methyloxan-4-yl]-1H-imidazo[4,5-c]quinoline-8-carboxamide], greater than 1000 nM; as for `C[C@@H]1C[C@H](n2c([C@@H]3CCN(C(=O)c4cccnn4)C3)nc3cnc4ccc(C#N)cc4c32)CCO1` [Compound 129, 1-[(2R,4R)-2-methyloxan-4-yl]-2-[(3R)-1-(pyridazine-3-carbonyl)pyrrolidin-3-yl]-1H-imidazo[4,5-c]quinoline-8-carbonitrile], 2.47 nM.
Same read-out and setting: as for `C[C@@H]1C[C@H](n2c([C@@H]3CCN(C(=O)c4cnn(C)c4)C3)nc3cnc4ccc(C#N)cc4c32)CCO1` [Compound 130, 2-[(3R)-1-(1-methyl-1H-pyrazole-4-carbonyl)pyrrolidin-3-yl]-1-[(2R,4R)-2-methyloxan-4-yl]-1H-imidazo[4,5-c]quinoline-8-carbonitrile], the figure is 6.71 nM.
On LRRK2 wild type enzyme, `Cc1cc(-n2c(CC(=O)NCC3CC3)nc3cnc4ccc(C#N)cc4c32)ccn1` [Compound 138, 2-[8-cyano-1-(2-methylpyridin-4-yl)-1H-imidazo[4,5-c]quinolin-2-yl]-N-(cyclopropylmethyl)acetamide] returned an IC50 greater than 1000 nM.
In turn, `C[C@@H]1C[C@H](n2c(C3CC(=O)N(Cc4cccnc4)C3)nc3cnc4ccc(C#N)cc4c32)CCO1` (single isomer, unassigned) [Compound 31, 1-[(2R,4R)-2-methyloxan-4-yl]-2-[(3R*)-5-oxo-1-[(pyridin-3-yl)methyl]pyrrolidin-3-yl]-1H-imidazo[4,5-c]quinoline-8-carbonitrile] had an IC50 on LRRK2 wild type enzyme of 26.4 nM.
